Consider seven molecules from patent publication US12685708B2, “Skin care composition” (BEIERSDORF AG, priority 2019, dated 2026).

Common to all, as to type: cell-based, Cutibacterium acnes
One assay relates to C. acnes strain C3. In words: Evaluation of the minimum inhibitory concentration (MIC) of cosmetic excipients. To be noted: % w/vol, incubated anaerobically 3 days at 37° C., scored for growth or complete growth inhibition. As for the experimental part: (§1) In microbiology, the MIC is the lowest concentration of a chemical which prevents visible growth of bacterium. The resulted MIC value depends both on the microorganism and the test compound. The MIC is determined by preparing concentrations series of the test compound in vitro, incubating the solutions with the separate batches of cultured bacteria, and measuring the results using agar dilution or broth microdilution. For the experiments with C. acnes strains C3 and K8, media comprising yeast extract soy peptone and dextrose were used. The MIC is determined by turbidity.
(§2) A total of 125 cosmetic excipients were tested for their compatibility with C. acnes strains C3 and K8. Hydrophilic compounds were tested in a 96-well plate liquid broth format, poorly soluble compounds were pre-dissolved in DMSO before dilution in liquid broth and hydrophobic or solid compounds were tested in an agar well diffusion test assay. The different dilutions of the test excipients in media were prepared in Falcon tubes and then distributed in a deep well plate using a multistepper. Each well received 1.2 ml and was subsequently inoculated with 120 μl of C. acnes bacteria suspension (strain C3 and K8). From the deep well plate 200 μl were transferred in each well of a clear 96 well replicate plate. The leftover was discarded. The plates were then incubated anaerobically for 3 days at 37° C. Following incubation, the test plates were visually examined and wells were scored for growth or complete growth inhibition to define the minimum inhibitory concentration.
(§3) These excipients are listed in the below table with their compatibility values for C. acnes strains C3 and K8. The compatibility values represent the MIC value of the listed ingredients with the tested C. acnes strains. At this concentration [% w/vol] the tested compound starts interfering with the growth of the tested strains. The compounds can be used in formulations at concentrations below this concentration.

Another assay concerns C. acnes strain K8. The description is as above. To be noted: % w/vol, incubated anaerobically 3 days at 37° C., scored for growth or complete growth inhibition. As for the experimental part: as §1, §2, §3
Assay [1] relates to freeze-dried C. acnes strains K8 and C3. In words: Reactivation assay of freeze dried bacteria in formulations (CFU count). To be noted: statement in the description. From the text:
For this purpose, a freeze-dried powder of C. acnes strains K8 and C3 was produced and mixed with other ingredients as indicated below. Ingredients are listed in % (w/w). The formulations were provided in two pre-mixed compositions A and B that were finally mixed with each other. The following formulations were made: […]
The formulations are depicted in the form of a table in FIG. 1. For formulations 1-11, the CFU target value was 1×10^7. For formulations 12-15, the CFU target value was 1×10^6. A CFU count was performed directly after mixing the formulation to assess the effect of the prototype formulation on the revival and subsequent stability rate of the bacteria. Briefly, the formula component A (lyophilisate/oil suspension) and the formula component B (hydrogel/aqueous solution) are mixed together and well vortexed. Directly after mixing an aliquot is removed and transferred to 0.9% NaCl. Further dilutions are plated on COST agar plates and incubated anaerobically at 37° C. for 5 days.
Similar to the formulations tested in Example 2, another set of 11 prototype formulations was prepared with higher concentrations of the excipients of the invention. The formulations were tested as described in Example 2 for their impact on reactivation of freeze-dried C. acnes bacteria. As a control, a formulation containing the lyophilisate and low amounts of the excipients was prepared. […]

As to `CCCCCCC(O)CO` (stereo not drawn) [caprylyl glycol], the “COMPATABILITY VALUE C3 [%] (MIC)” value in the assay on C. acnes strain C3 is on record as 0.18%. In addition, the “COMPATABILITY VALUE K8 [%] (MIC)” value in the assay with C. acnes strain K8 stood at 0.18%.
As to `O=C(O)CC(O)(CC(=O)O)C(=O)O` [citric acid], the “COMPATABILITY VALUE C3 [%] (MIC)” value with C. acnes strain C3 worked out at 0.33%. Besides, the “COMPATABILITY VALUE K8 [%] (MIC)” value in the assay on C. acnes strain K8 is recorded as 0.08%.
For `CC(CO)CO` [methylpropanediol], in the assay on C. acnes strain C3, the “COMPATABILITY VALUE C3 [%] (MIC)” value is on record as 4.00%. In the assay with C. acnes strain K8, the “COMPATABILITY VALUE K8 [%] (MIC)” value is listed as 4.00%.
For `CC(=O)Oc1c(C)c(C)c2c(c1C)CCC(C)(CCC[C@H](C)CCC[C@H](C)CCCC(C)C)O2` (stereo partly drawn) [tocopheryl acetate], the “COMPATABILITY VALUE C3 [%] (MIC)” value with C. acnes strain C3 was found to be 1.00%. Moreover, in the assay on C. acnes strain K8, the “COMPATABILITY VALUE K8 [%] (MIC)” value amounted to 1.00%.
Take ethylhexyl cocoate: the “COMPATABILITY VALUE C3 [%] (MIC)” value in the assay on C. acnes strain C3 is on record as 10.00%. For the same molecule, the “COMPATABILITY VALUE K8 [%] (MIC)” value with C. acnes strain K8 was determined as 10.00%.
As for peg-40 hydrogenated castor oil, in the assay with C. acnes strain C3, the “COMPATABILITY VALUE C3 [%] (MIC)” value came to 1.00%. Also, the “COMPATABILITY VALUE K8 [%] (MIC)” value with C. acnes strain K8 is listed as 1.00%. Also, in assay [1], the “interference with viability and replication capability of the lyophilized or spray-dried bacteria” value is reported as “does not interfere”.
With tocopherol, in the assay with C. acnes strain C3, the “COMPATABILITY VALUE C3 [%] (MIC)” value turned out to be 1.50%. For the same molecule, the “COMPATABILITY VALUE K8 [%] (MIC)” value with C. acnes strain K8 was 1.50%.
